Source: ChEMBL document CHEMBL4350952, “Evolution of PI3Kγ and δ Inhibitors for Inflammatory and Autoimmune Diseases” (J Med Chem, 2019)

Experiments:
U-937 = assay: cells; format: functional, cell-based; settings: Homo sapiens
Description: Cytotoxicity against in human U937 cells

Homo sapiens = species: Homo sapiens; assay: Selectivity ratio of IC50 for PI3Kbeta in human U937 cells to IC50 for GST-tagged PI3Kdelta in human U937 cells; format: cell-based
Mus musculus [1] = species: Mus musculus; assay: Decrease in eosinophil influx reduction in mouse at 1 ug, it relative to control; format: functional; design: scale not given: the % may be the effect or the level left
Mus musculus [2] = species: Mus musculus; assay: Decrease in eosinophil influx reduction in mouse at 4 ug, it relative to control; format: functional; design: scale not given: the % may be the effect or the level left
Mus musculus [3] = species: Mus musculus; assay: Decrease in eosinophil influx reduction in mouse at 20 ug, it relative to control; format: functional; design: scale not given: the % may be the effect or the level left
Mus musculus [4] = species: Mus musculus; assay: Decrease in neutrophil influx reduction in mouse at 1 ug, it relative to control; format: functional; design: scale not given: the % may be the effect or the level left
Mus musculus [5] = species: Mus musculus; assay: Decrease in neutrophil influx reduction in mouse at 4 ug, it relative to control; format: functional; design: scale not given: the % may be the effect or the level left
Mus musculus [6] = species: Mus musculus; assay: Decrease in neutrophil influx reduction in mouse at 20 ug, it relative to control; format: functional; design: scale not given: the % may be the effect or the level left
Mus musculus [7] = species: Mus musculus; assay: Decrease in number of neutrophils in mouse BAL at 1 ug, it at 2 hrs post dose relative to control; format: functional; design: scale not given: the % may be the effect or the level left
Mus musculus [8] = species: Mus musculus; assay: Decrease in number of neutrophils in mouse BAL at 4 ug, it at 2 hrs post dose relative to control; format: functional; design: scale not given: the % may be the effect or the level left
Mus musculus [9] = species: Mus musculus; assay: Decrease in number of neutrophils in mouse BAL at 20 ug, it at 2 hrs post dose relative to control; format: functional; design: scale not given: the % may be the effect or the level left
Mus musculus [10] = species: Mus musculus; assay: Decrease in number of neutrophils in mouse BAL at 4 ug, it at 8 hrs post dose relative to control; format: functional; design: scale not given: the % may be the effect or the level left
Mus musculus [11] = species: Mus musculus; assay: Decrease in number of neutrophils in mouse BAL at 4 ug, it at 12 hrs post dose relative to control; format: functional; design: scale not given: the % may be the effect or the level left
Rattus norvegicus [12] = species: Rattus norvegicus; assay: Decrease in number of neutrophils in rat BAL at 5 ug, it at 2 hrs post dose relative to control; format: functional; design: scale not given: the % may be the effect or the level left
Rattus norvegicus [13] = species: Rattus norvegicus; assay: Decrease in number of neutrophils in rat BAL at 20 ug, it at 2 hrs post dose relative to control; format: functional; design: scale not given: the % may be the effect or the level left
Rattus norvegicus [14] = species: Rattus norvegicus; assay: Decrease in number of neutrophils in rat BAL at 100 ug, it at 2 hrs post dose relative to control; format: functional; design: scale not given: the % may be the effect or the level left
Rattus norvegicus [15] = species: Rattus norvegicus; assay: Decrease in number of neutrophils in rat BAL at 20 ug, it at 8 hrs post dose relative to control; format: functional; design: scale not given: the % may be the effect or the level left
Rattus norvegicus [16] = species: Rattus norvegicus; assay: Decrease in number of neutrophils in rat BAL at 20 ug, it at 12 hrs post dose relative to control; format: functional; design: scale not given: the % may be the effect or the level left

COCCOCCOCC#Cc1cccc2nc(Cn3nc(-c4cc(O)cc(F)c4)c4c(N)ncnc43)n(Cc3ccccc3C(F)(F)F)c(=O)c12
IC50 (U-937): 7.4 nM | Ratio IC50 (Homo sapiens): 2000 | Activity (Mus musculus [1]): 20% | Activity (Mus musculus [2]): 85% | Activity (Mus musculus [3]): 91% | Activity (Mus musculus [4]): 18% | Activity (Mus musculus [5]): 70% | Activity (Mus musculus [6]): 80% | Activity (Mus musculus [7]): 19% | Activity (Mus musculus [8]): 53% | Activity (Mus musculus [9]): 68% | Activity (Mus musculus [10]): 45% | Activity (Mus musculus [11]): 23% | Activity (Rattus norvegicus [12]): 9% | Activity (Rattus norvegicus [13]): 58% | Activity (Rattus norvegicus [14]): 73% | Activity (Rattus norvegicus [15]): 33% | Activity (Rattus norvegicus [16]): 10%
